Assay results: PubChem BioAssay (NCI)
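Abbreviation: GI50, concentration required for 50% inhibition of growth. The concentration for full growth arrest is given as TGI.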

How the values were obtained:
Experiment in all cases: DTP human tumour cell line panel, 384-well format
[1] = test system: SK-MEL-5 melanoma
[2] = test system: UACC-62 melanoma
[3] = test system: MDA-MB-468 breast
[4] = test system: OVCAR-4 ovarian
[5] = test system: NCI-H226 lung
[6] = test system: SN12C renal
[7] = test system: T-47D breast
[8] = test system: NCI-H460 NSCLC
[9] = test system: NCI/ADR-RES ovarian
[10] = test system: SK-MEL-28 melanoma
[11] = test system: UACC-257 melanoma
[12] = test system: HCT-116 colon
[13] = test system: EKVX NSCLC
[14] = test system: BT-549 breast
[15] = test system: MDA-MB-435 melanoma
[16] = test system: A549 NSCLC
[17] = test system: HS 578T breast
[18] = test system: HOP-62 NSCLC
[19] = test system: IGROV1 ovarian
[20] = test system: SK-OV-3 ovarian
[21] = test system: MDA-MB-231 breast
[22] = test system: SF-539 CNS
[23] = test system: UO-31 renal
[24] = test system: COLO 205 colon
[25] = test system: SNB-75 CNS
[26] = test system: NCI-H522 lung

## CC[C@H](CO)Nc1nc(NCc2ccccc2)c2ncn(C(C)C)c2n1
[1]
  GI50: 15.4 µM
  TGI: 31.8 µM
[2]
  GI50: 13.7 µM
  TGI: 27.3 µM
[3]
  GI50: 19.8 µM
  TGI: 37.9 µM
[4]
  GI50: 32 µM
  TGI: > 100 µM
[5]
  GI50: 22.4 µM
  TGI: 68.3 µM
[6]
  GI50: 21.1 µM
  TGI: 52.1 µM
[7]
  GI50: 24.9 µM
  TGI: 76.1 µM
[8]
  GI50: 16.2 µM
  TGI: 31.8 µM
[9]
  GI50: 22.3 µM
  TGI: 75.2 µM
[10]
  GI50: 16.3 µM
  TGI: 36.4 µM
[11]
  GI50: 21.2 µM
  TGI: 59.5 µM
[12]
  GI50: 16.4 µM
  TGI: 35.3 µM
[13]
  GI50: 23 µM
  TGI: 59.6 µM
[14]
  GI50: 15.9 µM
  TGI: 33.6 µM
[15]
  GI50: 23.2 µM
  TGI: 64.6 µM
[16]
  GI50: 27.5 µM
  TGI: > 100 µM
[17]
  GI50: 15.2 µM
  TGI: 32.3 µM
[18]
  GI50: 21.8 µM
  TGI: 62.2 µM
[19]
  GI50: 26.5 µM
  TGI: 95.8 µM
[20]
  GI50: 36.5 µM
  TGI: > 100 µM
[21]
  GI50: 22.4 µM
  TGI: 62.9 µM
[22]
  GI50: 19.1 µM
  TGI: 40.3 µM
[23]
  GI50: 20.9 µM
  TGI: 45 µM
[24]
  GI50: 21.3 µM
  TGI: 52.8 µM
[25]
  GI50: 16.6 µM
  TGI: 35.4 µM
[26]
  GI50: 18.3 µM
  TGI: 50.6 µM
